In PubChem BioAssay (NCI):
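Abbreviation: GI50, concentration required for 50% inhibition of growth. TGI denotes the concentration required for complete inhibition of growth.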

Assays:
Assay in all cases: growth of human tumour cells (NCI), 384-well format
LOX IMVI melanoma = tested on: LOX IMVI melanoma
HL-60(TB) leukemia = tested on: HL-60(TB) leukemia
HCT-116 colon = tested on: HCT-116 colon
RPMI-8226 leukemia = tested on: RPMI-8226 leukemia
COLO 205 colon = tested on: COLO 205 colon
HCC-2998 colon = tested on: HCC-2998 colon
OVCAR-4 ovarian = tested on: OVCAR-4 ovarian
SNB-75 CNS = tested on: SNB-75 CNS
OVCAR-8 ovarian = tested on: OVCAR-8 ovarian
SK-MEL-5 melanoma = tested on: SK-MEL-5 melanoma
MDA-MB-468 breast = tested on: MDA-MB-468 breast
NCI-H322M lung = tested on: NCI-H322M lung
SN12C renal = tested on: SN12C renal
NCI/ADR-RES ovarian = tested on: NCI/ADR-RES ovarian
M14 melanoma = tested on: M14 melanoma
OVCAR-5 ovarian = tested on: OVCAR-5 ovarian
SF-539 CNS = tested on: SF-539 CNS
BT-549 breast = tested on: BT-549 breast
SF-268 CNS = tested on: SF-268 CNS
UACC-257 melanoma = tested on: UACC-257 melanoma
EKVX NSCLC = tested on: EKVX NSCLC
MDA-MB-435 melanoma = tested on: MDA-MB-435 melanoma
MALME-3M melanoma = tested on: MALME-3M melanoma
SK-MEL-28 melanoma = tested on: SK-MEL-28 melanoma
U251 glioblastoma = tested on: U251 glioblastoma
NCI-H460 NSCLC = tested on: NCI-H460 NSCLC
SR leukemia = tested on: SR leukemia
OVCAR-3 ovarian = tested on: OVCAR-3 ovarian
KM12 colon = tested on: KM12 colon
NCI-H23 lung = tested on: NCI-H23 lung
A549 NSCLC = tested on: A549 NSCLC
MCF7 breast = tested on: MCF7 breast
MDA-MB-231 breast = tested on: MDA-MB-231 breast
HOP-62 NSCLC = tested on: HOP-62 NSCLC
SK-OV-3 ovarian = tested on: SK-OV-3 ovarian
NCI-H522 lung = tested on: NCI-H522 lung
SF-295 CNS = tested on: SF-295 CNS
MOLT-4 leukemia = tested on: MOLT-4 leukemia
CAKI-1 renal = tested on: CAKI-1 renal
UACC-62 melanoma = tested on: UACC-62 melanoma
HS 578T breast = tested on: HS 578T breast

## C[C@@H](O)[C@@H](C)Oc1nc(Nc2ccc(S(=N)(=O)C3CC3)cc2)ncc1C(F)(F)F (some centres not stated)
LOX IMVI melanoma
  GI50: 14.6 nM
  TGI: 48.9 nM
HL-60(TB) leukemia
  GI50: < 10 nM
  TGI: 20.7 nM
HCT-116 colon
  GI50: 12.5 nM
  TGI: > 100000 nM
RPMI-8226 leukemia
  GI50: 15.2 nM
  TGI: 28.9 nM
COLO 205 colon
  GI50: 16.4 nM
  TGI: 42.6 nM
HCC-2998 colon
  GI50: 12 nM
  TGI: 33.3 nM
OVCAR-4 ovarian
  GI50: 21.3 nM
  TGI: 56.9 nM
SNB-75 CNS
  GI50: 16.4 nM
  TGI: 33 nM
OVCAR-8 ovarian
  GI50: 18.8 nM
  TGI: 73.7 nM
SK-MEL-5 melanoma
  GI50: < 10 nM
  TGI: 21.5 nM
MDA-MB-468 breast
  GI50: 15.9 nM
  TGI: 30.2 nM
NCI-H322M lung
  GI50: 21.2 nM
  TGI: 46.7 nM
SN12C renal
  GI50: 16.6 nM
  TGI: 36.4 nM
NCI/ADR-RES ovarian
  GI50: 67.3 nM
  TGI: 406 nM
M14 melanoma
  GI50: 19.7 nM
  TGI: 85.2 nM
OVCAR-5 ovarian
  GI50: 16.8 nM
  TGI: 54.5 nM
SF-539 CNS
  GI50: 17.9 nM
  TGI: 36.4 nM
BT-549 breast
  GI50: 12.4 nM
  TGI: 27.1 nM
SF-268 CNS
  GI50: 20.1 nM
  TGI: 58.6 nM
UACC-257 melanoma
  GI50: 17.7 nM
  TGI: 37.2 nM
EKVX NSCLC
  GI50: 23.8 nM
  TGI: 52 nM
MDA-MB-435 melanoma
  GI50: 23.3 nM
  TGI: 64.5 nM
MALME-3M melanoma
  GI50: 23.5 nM
  TGI: 46.6 nM
SK-MEL-28 melanoma
  GI50: 16.4 nM
  TGI: 39.5 nM
U251 glioblastoma
  GI50: 20.2 nM
  TGI: 60 nM
NCI-H460 NSCLC
  GI50: 12 nM
  TGI: 28.5 nM
SR leukemia
  GI50: < 10 nM
  TGI: 13.2 nM
OVCAR-3 ovarian
  GI50: 18.2 nM
  TGI: 43.9 nM
KM12 colon
  GI50: 23.4 nM
  TGI: > 100000 nM
NCI-H23 lung
  GI50: 17.1 nM
  TGI: 36.1 nM
A549 NSCLC
  GI50: 33.4 nM
  TGI: > 100000 nM
MCF7 breast
  GI50: 24.1 nM
  TGI: > 100000 nM
MDA-MB-231 breast
  GI50: 28.3 nM
  TGI: > 100000 nM
HOP-62 NSCLC
  GI50: 14.4 nM
  TGI: 44.8 nM
SK-OV-3 ovarian
  GI50: 41.7 nM
  TGI: > 100000 nM
NCI-H522 lung
  GI50: < 10 nM
  TGI: 24.9 nM
SF-295 CNS
  GI50: 30.9 nM
  TGI: > 100000 nM
MOLT-4 leukemia
  GI50: 20.2 nM
  TGI: 35 nM
CAKI-1 renal
  GI50: 32.2 nM
  TGI: > 100000 nM
UACC-62 melanoma
  GI50: 12.7 nM
  TGI: 27.9 nM
HS 578T breast
  GI50: 24.4 nM
  TGI: 62.8 nM
